Patent US20130315981A1, “METHOD FOR INDUCING FAT LOSS IN MAMMALS” (The Trustees of Columbia University in the City of New York, priority 2010, published 2013)

Experiments:
[1] = tested on: perigonadal adipose tissue explants; experiment: Lipolysis (FFA release) of perigonadal adipose tissue explants with isoproterenol; format: cell-based, C57BL/6J mice; parameters: dose or concentration left out as unconfirmed; conditions: explants from lean ad libitum-fed mice
Description: Perigonadal fat pads were surgically removed from high-fat-fed C57BL/6J mice (n=5/group), which were either ad libitum fed or were undergoing caloric restriction. Subsequently, they were washed several times with PBS. Tissue pieces (−100 mg total weight) were incubated in DMEM (Invitrogen) containing 2% fatty acid-free BSA (Sigma-Aldrich) at 37° C. Aliquots were collected after 120 minutes and investigated for FFA and glycerol content. FFA and glycerol were measured using the HR NEFA series (Wako Diagnostics) and the free glycerol determination kit (Sigma-Aldrich), respectively. We measured adipocyte numbers in parallel samples from weight- and fat-matched ad libitum-fed and calorically restricted mice.
(§1) Explant-conditioned media, plain media, or media containing recombinant MCP-1 (50 ng/ml) (PeproTech) were added into the lower chamber. To obtain explant-conditioned media, explants were isolated from lean 10-week-old C57BL/6J mice that were ad libitum fed or fasted for 24 hours. […] Explant FFA content was evaluated using the HR NEFA series (Wako Diagnostics). […] At the end of the incubation, cells were detected by a green fluorescent dye (CyQUANT dye) included in the assay. Fluorescence intensity was measured with the Infinite 500 (Tecan). Cell numbers were determined based on fluorescence readings and a standard curve.

[2] = tested on: bone marrow-derived macrophages (BMDMs); experiment: Macrophage migration assay with explant-conditioned media; format: cell-based, C57BL/6J mice; conditions: explant-conditioned medium, isoproterenol-treated explants; comparable to MCP-1/CCL2 (50 ng/ml)
Description: Murine BMDMs were differentiated in vitro from bone marrow precursor cells. Briefly, bone marrow cells were flushed from femurs and tibias of 9-week-old C57BL/6J mice, washed in DMEM (Invitrogen), and grown for 7 days in Petri dishes containing DMEM with 10% FBS, 20% L929 cell-conditioned media, 5% horse serum, 1% glutamine, and 1% sodium pyruvate. On the seventh day, media were replaced with DMEM containing 10% FBS, 10% L929 cell-conditioned media, 5% horse serum, 1% glutamine, and 1% sodium pyruvate; macrophages were grown for 3 more days. Differentiation was confirmed by FACS analysis. BMDM migration was evaluated using the QCM chemotaxis […] 96-well cell migration assay (Millipore) according to the manufacturer's instructions.
as §1

[3] = tested on: stromal vascular cells (SVCs); experiment: Co-culture of SVCs with adipose tissue with or without isoproterenol; format: cell-based, C57BL/6J mice
Description: RNA was isolated from SVCs using the QIAGEN RNeasy Minikit (QIAGEN) and used as template for cDNA synthesis using Superscript III reverse transcriptase (Invitrogen) and random hexamer primers. Quantitative RT-PCR assays were carried out using DNA Engine Opticon 2 system instruments (Bio-Rad) and PCR SYBR Green I QuantiTect Master Mix (QIAGEN). The mRNA expression of all genes reported is normalized to the cyclophilin B (Ppib) gene expression. Every reaction was performed in duplicate, and the data were analyzed with the 2-DDCT method (49). To isolate SVCs, perigonadal adipose tissue was isolated from high-fat diet-induced obese C57BL/6J male mice immediately after CO2 asphyxiation. Tissues were handled using sterile techniques and minced into fine (<10 mg) pieces. For SVC isolation, minced samples were placed in DMEM (Invitrogen) supplemented with 10 mg/ml BSA (Sigma-Aldrich). An LPS-depleted collagenase cocktail (Liberase 3; Roche Applied Science) at a concentration of 0.03 mg/ml was added to the tissue suspension, and the samples were incubated at 37° C. on an orbital shaker (200 g) for 45 minutes. Once digestion was complete, samples were passed through a sterile 250-mm nylon mesh (Sefar America Inc.). The suspension was centrifuged at 500 g for 5 minutes. The pelleted cells were collected as SVCS. The SVCS were resuspended in erythrocyte lysis buffer (BD Biosciences) and incubated at room temperature for 1 minute. SVCS were plated at a concentration of 650,000 cells/well on cell culture inserts with 1-mm pore size (BD). Each insert was placed in a well of a 12-well tissue culture plate (BD) containing 100 mg of finely minced adipose tissue. To isolate small intact pieces of adipose tissue for culture, perigonadal adipose tissue was remove from high-fat-fed obese C57BL/6J mice and minced to approximately 10-mg size pieces. SVCS were cocultured with adipose tissue pieces for 24 hours in DMEM containing 10% FBS, 1% penicillin, and 2% fatty acid-free BSA. Isoproterenol (Sigma-Aldrich) was added in selected wells at a concentration of 10 mmoles/1. The stromal vascular fraction was collected for gene expression or oil red 0 staining after 24 hours. SVCS were air-dried and fixed with zinc-formalin fixative (see above) for 10 minutes and stained oil red O as previously described (50).

[4] = tested on: ATMs in perigonadal adipose tissue; experiment: CL316,243 treatment of lean mice: ATM content in perigonadal adipose tissue; format: in vivo, C57BL/6J mice
Description: Ten 8-week-old C57BL/6J mice fed the standard pellet diet (see above) were injected intraperitoneally with 1 mg/kg of CL316,243 or saline twice (4 hours between each injection). Mice were sacrificed 14 hours after the second injection. Perigonadal adipose tissue was excised and samples were stored as described above.
Adipose tissue samples were fixed for 48 hours at room temperature in zinc-formalin fixative (Anatech Ltd.), incubated in 70% ethanol for 24 hours, and subsequently embedded in paraffin. […] For each individual adipose tissue depot, 5-10 different high-power fields from each of 3 different sections were analyzed. The total number of nuclei and the number of nuclei of F4/80-expressing cells were counted for each field. The fraction of F4/80-expressing cells for each sample was calculated as the sum of the number of nuclei of F4/80-expressing cells divided by the total number of nuclei in sections of a sample. Cross-sectional area was determined for each adipocyte in each field using image analysis software Image-Pro Plus (Media Cybernetics Inc.). For each mouse, 800-1000 adipocytes were counted. Adipocyte number was calculated from fat pad weight and adipocyte volume (48). […] For each individual adipose tissue depot, 10 different high-power fields from each of 3 different sections were analyzed. […]

| SMILES | lipolysis as release of FFA from explants [1] | chemotactic activity of adipose tissue toward BMDMs [2] | SVC gene expression or lipid accumulation ([3]; SVCs cultured in the absence of adipose tissue, 24 hours) | lipid accumulation within SVCs (oil red O) ([3]; coculture with adipose tissue plus isoproterenol) | Ccr2 gene expression in the SVC fraction ([3]; coculture with adipose tissue plus isoproterenol stimulation) | program of adipocyte differentiation in SVCs (adiponectin, leptin, Pparg expression) ([3]; in the presence of adipose tissue) | Adfp gene expression in SVCs ([3]; in the presence of adipose tissue, 24 hours) | Cd36 expression in SVCs ([3]; in the presence of adipose tissue, P=0.09) | increase of ATM content in perigonadal adipose tissue ([4]; lean C57BL/6J mice, 1 mg/kg intraperitoneally twice 4 hours apart, tissue 14 hours after final injection, vs control-treated mice) | inflammatory phenotype of adipose tissue (expression of inflammatory markers) ([4]; lean mice, CL316,243 vs vehicle, perigonadal adipose tissue) |
| --- | --- | --- | --- | --- | --- | --- | --- | --- | --- | --- |
| CC(C)NCC(O)c1ccc(O)c(O)c1 (stereo not shown) [isoproterenol] | increased lipolysis | proportional increase in the chemotactic activity | no effect | accumulation of lipid within SVCS | induced Ccr2 gene expression | no activation of a program of adipocyte differentiation | induced the expression of the gene Adfp | increased | – | – |
| C[C@H](Cc1ccc2c(c1)OC(C(=O)[O-])(C(=O)[O-])O2)NC[C@H](O)c1cccc(Cl)c1.[Na+].[Na+] [CL316,243] | – | – | – | – | – | – | – | – | more than 5 fold | do not increase the inflammatory phenotype of adipose tissue |
